pIC50: −log10 of the molar value.
What was measured:
[1] = biological target: T1, TAK1 (Homo sapiens, UniProt O43318); assay: TAK1 LanthaScreen Eu Kinase Binding Assay (Invitrogen; Table 1 calls it TAK1 enzymatic assay); details: for pIC50: read-out: IC50 against TAK1; for TAK1 potency, SAR result in words: Table 1 SAR discussion
T1 construct: purchased Invitrogen (Thermo Fisher Scientific)
T1 sequence (O43318 with tags, fused parts or gaps limits assumed): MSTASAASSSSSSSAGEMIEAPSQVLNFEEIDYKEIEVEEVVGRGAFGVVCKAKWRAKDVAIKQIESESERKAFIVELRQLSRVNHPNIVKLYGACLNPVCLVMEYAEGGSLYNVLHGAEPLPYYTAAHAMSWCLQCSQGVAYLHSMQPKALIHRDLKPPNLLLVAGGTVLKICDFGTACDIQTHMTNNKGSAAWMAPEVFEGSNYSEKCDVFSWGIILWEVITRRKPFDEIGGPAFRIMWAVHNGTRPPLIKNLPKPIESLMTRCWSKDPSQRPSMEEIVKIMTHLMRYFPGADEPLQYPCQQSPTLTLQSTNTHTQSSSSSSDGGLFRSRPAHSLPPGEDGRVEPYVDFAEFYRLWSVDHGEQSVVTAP
Experimental: Kinase assays were performed by Invitrogen (now Thermo Fisher Scientific, Waltham, MA) or Reaction Biology Corp. (Malvern, PA). Inhibitory activity of compounds for TAK1 was evaluated using LanthaScreen® Eu Kinase Binding Assay (Invitrogen, Waltham, MA). The kinase profile of compound 13h was determined by the kinase HotSpot Profiling service of Reaction Biology Corporation. All assays were performed at Km for ATP.
Table 1. TAK1 enzymatic assay with imidazopyridine derivatives. ^a In-vitro enzymatic assay data obtained from Invitrogen^TM.

[2] = test system: MDA-MB-231 cells; assay: Caspase-3/7 assay (Apo-ONE); assay type: cell-based; details: 10 µM, presence of TNFα (10 ng/ml), 24 h, MDA-MB-231, positive control
Experimental: MDA-MB-231 cells were obtained from the Korean Cell Line Bank. Cells were cultured in Roswell Park Memorial Institute (RPMI) 1640 medium containing 10% foetal bovine serum and 1% penicillin/streptomycin at 37 °C with 5% CO2 under humidified atmosphere.
The assay was performed using Apo-ONE® Homogeneous Caspase-3/7 Assay kits (Catalogue No. G7790, Promega, Madison, WI). MDA-MB-231 cells in a concentration of 5000 cells/100 µl were seeded in each well of a black 96-well plate and starved after adhering to the plate. The cells were incubated for 24 h, and the serum-starved cells were treated with either Takinib or 13h in the presence or absence of TNFα (10 ng/ml). All samples and the control contained DMSO in a final concentration of 0.5%. After another 24 h of incubation, 100 µL of Apo-ONE® caspase-3/7 reagent was added to each well, and the cells were incubated at room temperature in darkness for 2 h. Fluorescence was then measured at 530 nm with excitation at 485 nm using a FlexStation 3 Multi-Mode microplate reader (Molecular Devices). Statistical analyses of the data included a one-way ANOVA, followed by Tukey’s multiple comparison test.

Compound	TAK1 potency, SAR result in words [1]	also measured
(R)-N-(1–(5-chloro-2-((4–(4-methylpiperazin-1-yl)phenyl)amino)pyrimidin-4-yl)pyrrolidin-3-yl)acrylamide [Compound 14]	–	IC50 relative to that of the pyrimidine (6) ([1]; TAK1, compared with 6): approximately twice; pIC50 [1]: 6.02
CN1CCN(c2ccc(-c3nc4c(N5CC[C@@H](NC(=O)/C(C#N)=C/c6cccc(Cl)n6)C5)c(Cl)cnc4[nH]3)cc2)CC1 [Compound 13g, (R,E)-N-(1–(6-chloro-2–(4–(4-methylpiperazin-1-yl)phenyl)-3H-imidazo[4,5-b]pyridin-7-yl)pyrrolidin-3-yl)-3-(6-chloropyridin-2-yl)-2-cyanoacrylamide]	increased	–
CN1CCN(c2ccc(-c3nc4c(N5CC[C@@H](NC(=O)/C(C#N)=C/c6cccc(C7CC7)n6)C5)c(Cl)cnc4[nH]3)cc2)CC1 [Compound 13i, (R,E)-N-(1–(6-chloro-2–(4-(4-methylpiperazin-1-yl)phenyl)-3H-imidazo[4,5-b]pyridin-7-yl)pyrrolidin-3-yl)-2-cyano-3-(6-cyclopropylpyridin-2-yl)acrylamide]	increased	–
C=CC(=O)N[C@@H]1CCN(c2nc(Nc3ccc(N4CCN(C)CC4)cc3)ncc2Cl)C1 [Compound 6]	–	pIC50 [1]: 6.38
CCCn1/c(=N/C(=O)c2cccc(C(N)=O)c2)[nH]c2ccccc21 [Takinib, reference compound]	–	caspase-3/7 activity [2]: significant caspase activation
Cc1ccc(/C=C(\C#N)C(=O)N[C@@H]2CCN(c3c(Cl)cnc4[nH]c(-c5ccc(N6CCN(C)CC6)cc5)nc34)C2)nc1 [Compound 13j, (R,E)-N-(1–(6-chloro-2–(4-(4-methylpiperazin-1-yl)phenyl)-3H-imidazo[4,5-b]pyridin-7-yl)pyrrolidin-3-yl)-2-cyano-3-(5-methylpyridin-2-yl)acrylamide]	excellent	–
Cc1ccnc(/C=C(\C#N)C(=O)N[C@@H]2CCN(c3c(Cl)cnc4[nH]c(-c5ccc(N6CCN(C)CC6)cc5)nc34)C2)c1 [Compound 13l, (R,E)-N-(1-(6-chloro-2-(4-(4-methylpiperazin-1-yl)phenyl)-3H-imidazo[4,5-b]pyridin-7-yl)pyrrolidin-3-yl)-2-cyano-3–(4-methylpyridin-2-yl)acrylamide]	excellent	–
CN1CCN(c2ccc(-c3nc4c(N5CC[C@@H](NC(=O)/C(C#N)=C/c6ccccc6)C5)c(Cl)cnc4[nH]3)cc2)CC1 [Compound 13a, (R,E)-N-(1-(6-chloro-2-(4-(4-methylpiperazin-1-yl)phenyl)-3H-imidazo[4,5-b]pyridin-7-yl)pyrrolidin-3-yl)-2-cyano-3-phenylacrylamide]	–	IC50 fold lower than the IC50 of 14 ([1]; TAK1, compared with 14): ~2.5 fold; pIC50 [1]: 6.41
CN1CCN(c2ccc(-c3nc4c(N5CC[C@@H](NC(=O)/C(C#N)=C/c6cccc(F)n6)C5)c(Cl)cnc4[nH]3)cc2)CC1 [Compound 13f, (R,E)-N-(1-(6-chloro-2-(4-(4-methylpiperazin-1-yl)phenyl)-3H-imidazo[4,5-b]pyridin-7-yl)pyrrolidin-3-yl)-2-cyano-3–(6-fluoropyridin-2-yl)acrylamide]	maintained or improved potency	–
Cc1csc(/C=C(\C#N)C(=O)N[C@@H]2CCN(c3c(Cl)cnc4[nH]c(-c5ccc(N6CCN(C)CC6)cc5)nc34)C2)n1 [Compound 13b, (R,E)-N-(1-(6-chloro-2-(4-(4-methylpiperazin-1-yl)phenyl)-3H-imidazo[4,5-b]pyridin-7-yl)pyrrolidin-3-yl)-2-cyano-3-(4-methylthiazol-2-yl)acrylamide]	highest potency	–
COc1ccc(/C=C(\C#N)C(=O)N[C@@H]2CCN(c3c(Cl)cnc4[nH]c(-c5ccc(N6CCN(C)CC6)cc5)nc34)C2)nc1 [Compound 13k, (R,E)-N-(1–(6-chloro-2–(4-(4-methylpiperazin-1-yl)phenyl)-3H-imidazo[4,5-b]pyridin-7-yl)pyrrolidin-3-yl)-2-cyano-3-(5-methoxypyridin-2-yl)acrylamide]	increased	–

Source: article PMC7594721, “Synthesis and biological activity of 2-cyanoacrylamide derivatives tethered to imidazopyridine as TAK1 inhibitors” (Journal of Enzyme Inhibition and Medicinal Chemistry, 2020)
